Measurements published in the supplement of paper PMC10627819.

What was measured:
[1] = system: B. subtilis 168; assay: fitness (endpoint OD595 vs no drug) (fraction); higher = more growth
Outline: (§1)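 Fitness expresses the optical density reached at the stationary-phase transition as a fraction of the robust mean of no-drug control wells. It is capped at 1. Measurements were OD595 every 30 min for 14 h at 37 °C after inoculation of 384-well plates at OD595 0.01 (30 µl, or 55 µl for S. pneumoniae), minus the first reading.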

[2] = system: S. aureus Newman; assay: as above
Outline: as §1

[3] = system: S. pneumoniae D39V; assay: as above
Outline: as §1

[4] = system: B. subtilis 168; assay: Bliss interaction score (quartile over a dose matrix) (fitness difference); higher = more antagonism (negative = synergy)
Outline: (§2)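 Each OD595 reading at entry into stationary phase was scaled to the robust mean of the untreated wells on its plate, with a ceiling of 1. These ratios define fitness, and single-drug fitness was inferred from combinations. The Bliss score compares observed fitness with the product-based expectation and is reported as quartiles across all replicate types, technical, biological and donor/recipient.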

[5] = system: S. aureus DSM 20231; assay: as above
Outline: as §2

[6] = system: S. aureus Newman; assay: as above
Outline: as §2

[7] = system: S. pneumoniae D39V; assay: as above
Outline: as §2
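For Bliss interaction score (quartile over a dose matrix) in this document: first quartile when negative (synergy) and third quartile when positive (antagonism).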
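For fitness (endpoint OD595 vs no drug) in this document: OD595 on entry to stationary phase over no-drug wells; at most 1.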

CNC(C)C1CCC(N)C(OC2C(N)CC(N)C(OC3OCC(C)(O)C(NC)C3O)C2O)O1 (stereo not drawn) [Gentamicin] + COc1ccc(C[C@H](N)C(=O)N[C@H]2[C@@H](O)[C@H](n3cnc4c(N(C)C)ncnc43)O[C@@H]2CO)cc1 [Puromycin]
main component drawn
Details	fitness
[1], first compound 0.0625 µg/mL, partner 0.39 µg/mL	0.889
[1], first compound 0.25 µg/mL, partner 0.39 µg/mL	0.0531
[1], first compound 0.25 µg/mL, partner 0.78 µg/mL	0.0448
[1], first compound 0.25 µg/mL, partner 1.56 µg/mL	0.0402
[2], first compound 0.5 µg/mL, partner 0.39 µg/mL	0.979
[2], first compound 0.5 µg/mL, partner 0.78 µg/mL	≥ 1
[2], first compound 0.5 µg/mL, partner 1.56 µg/mL	≥ 1
[2], first compound 1 µg/mL, partner 0.39 µg/mL	≥ 1
[2], first compound 1 µg/mL, partner 0.78 µg/mL	≥ 1
[2], first compound 1 µg/mL, partner 1.56 µg/mL	≥ 1
[2], first compound 2 µg/mL, partner 0.39 µg/mL	0.994
[2], first compound 2 µg/mL, partner 0.78 µg/mL	≥ 1
[2], first compound 2 µg/mL, partner 1.56 µg/mL	≥ 1
[3], first compound 2 µg/mL, partner 1 µg/mL	0.955
[3], first compound 2 µg/mL, partner 2 µg/mL	0.915
[3], first compound 4 µg/mL, partner 1 µg/mL	0.984
[3], first compound 8 µg/mL, partner 1 µg/mL	0.906
[3], first compound 8 µg/mL, partner 4 µg/mL	0.19

fitness, [2], one replicate, main component drawn
Details	first compound 0.375 µg/mL	first compound 0.75 µg/mL	first compound 1.5 µg/mL
partner 0.39 µg/mL	≥ 1	≥ 1	0.973
partner 0.78 µg/mL	≥ 1	≥ 1	≥ 1
partner 1.56 µg/mL	≥ 1	≥ 1	≥ 1

main component drawn
Details	Bliss interaction score
[4]	-0.204
[5]	-0.278
[6]	0.0455
[7]	-0.289

CNC(C)C1CCC(N)C(OC2C(N)CC(N)C(OC3OCC(C)(O)C(NC)C3O)C2O)O1 (stereo not drawn) [Gentamicin] + C[n+]1ccc(-c2cc[n+](C)cc2)cc1 [Paraquat]
main component drawn
Details	fitness
[1], first compound 0.0625 µg/mL, partner 1.25 µg/mL	0.865
[1], first compound 0.0625 µg/mL, partner 2.5 µg/mL	0.864
[1], first compound 0.25 µg/mL, partner 1.25 µg/mL	0.203
[1], first compound 0.25 µg/mL, partner 2.5 µg/mL	0.0485
[1], first compound 0.25 µg/mL, partner 5 µg/mL	0.0561
[2], first compound 0.5 µg/mL, partner 1.25 µg/mL	0.957
[2], first compound 0.5 µg/mL, partner 2.5 µg/mL	0.953
[2], first compound 0.5 µg/mL, partner 5 µg/mL	0.928
[2], first compound 1 µg/mL, partner 1.25 µg/mL	0.981
[2], first compound 1 µg/mL, partner 2.5 µg/mL	≥ 1
[2], first compound 1 µg/mL, partner 5 µg/mL	0.992
[2], first compound 2 µg/mL, partner 1.25 µg/mL	≥ 1
[2], first compound 2 µg/mL, partner 2.5 µg/mL	≥ 1
[2], first compound 2 µg/mL, partner 5 µg/mL	0.963
[3], first compound 2 µg/mL, partner 1.5 µg/mL	0.982
[3], first compound 2 µg/mL, partner 3 µg/mL	0.99
[3], first compound 2 µg/mL, partner 6 µg/mL	0.931
[3], first compound 4 µg/mL, partner 1.5 µg/mL	≥ 1
[3], first compound 4 µg/mL, partner 3 µg/mL	0.971
[3], first compound 4 µg/mL, partner 6 µg/mL	0.932
[3], first compound 8 µg/mL, partner 1.5 µg/mL	0.993
[3], first compound 8 µg/mL, partner 3 µg/mL	0.902
[3], first compound 8 µg/mL, partner 6 µg/mL	0.935

fitness, [2], one replicate, main component drawn
Details	first compound 0.375 µg/mL	first compound 0.75 µg/mL	first compound 1.5 µg/mL
partner 1.25 µg/mL	0.919	0.918	0.949
partner 2.5 µg/mL	0.951	0.937	0.98
partner 5 µg/mL	0.952	0.9	0.976

main component drawn
Details	Bliss interaction score
[4]	-0.0978
[5]	0.109
[6]	0.0489
[7]	0.0553

CC1=C(C(=O)O)N2C(=O)[C@@H](NC(=O)[C@H](N)c3ccccc3)[C@H]2SC1 [Cephalexin] + Cc1ncc([N+](=O)[O-])n1CCO [Metronidazole]
fitness
Details	partner 0.625 µg/mL	partner 1.073 µg/mL	partner 1.25 µg/mL	partner 2.145 µg/mL	partner 2.5 µg/mL	partner 4.29 µg/mL
[1], first compound 0.125 µg/mL	0.958	–	0.936	–	0.963	–
[1], first compound 0.25 µg/mL	0.94	–	0.91	–	0.86	–
[1], first compound 0.5 µg/mL	0.943	–	0.932	–	0.926	–
[2], first compound 0.25 µg/mL	0.962	–	≥ 1	–	≥ 1	–
[2], first compound 0.5 µg/mL	0.994	–	0.984	–	≥ 1	–
[2], first compound 1 µg/mL	≥ 1	–	≥ 1	–	≥ 1	–
[3], first compound 4 µg/mL	–	0.0041	–	0.0332	–	0.0078

fitness, one replicate
Details	first compound 0.125 µg/mL	first compound 0.25 µg/mL	first compound 0.5 µg/mL	first compound 1 µg/mL
[2], partner 0.781 µg/mL	–	0.989	≥ 1	≥ 1
[2], partner 1.562 µg/mL	–	≥ 1	≥ 1	≥ 1
[2], partner 3.124 µg/mL	–	0.998	≥ 1	≥ 1
[3], partner 1.25 µg/mL	≥ 1	0.989	≥ 1	–
[3], partner 2.5 µg/mL	≥ 1	≥ 1	≥ 1	–
[3], partner 5 µg/mL	0.971	≥ 1	≥ 1	–

Details	Bliss interaction score
[4]	-0.0395
[5]	0.0322
[6]	0.0215
[7]	0.132

C[n+]1ccc(-c2cc[n+](C)cc2)cc1 [Paraquat] + CN[C@@H]1[C@H](O[C@H]2[C@H](O[C@H]3[C@H](O)[C@@H](O)[C@H](N=C(N)N)[C@@H](O)[C@@H]3N=C(N)N)O[C@@H](C)[C@]2(O)C=O)O[C@@H](CO)[C@H](O)[C@H]1O [Streptomycin]
fitness
Details	partner 1 µg/mL	partner 2 µg/mL	partner 4 µg/mL	partner 8 µg/mL
[1], first compound 1.25 µg/mL	–	0.886	–	0.0237
[1], first compound 2.5 µg/mL	–	0.924	–	0.0505
[1], first compound 5 µg/mL	–	0.777	0.26	0.0406
[2], first compound 1.25 µg/mL	0.99	0.882	–	–
[2], first compound 2.5 µg/mL	0.907	0.912	–	–
[2], first compound 5 µg/mL	0.908	0.859	–	–
[3], first compound 1.5 µg/mL	–	0.953	0.983	0.89
[3], first compound 3 µg/mL	–	0.967	0.964	0.884
[3], first compound 6 µg/mL	–	0.946	0.916	0.866

[3], partner 16 µg/mL, one replicate
Details	fitness
first compound 1.5 µg/mL	0.865
first compound 3 µg/mL	0.857
first compound 6 µg/mL	0.722

Details	Bliss interaction score
[4]	-0.119
[5]	0.118
[6]	0.0567
[7]	-0.0799

CC1=C(C(=O)O)N2C(=O)[C@@H](NC(=O)[C@H](N)c3ccccc3)[C@H]2SC1 [Cephalexin] + CN(C)c1cc(NC(=O)CNC(C)(C)C)c(O)c2c1C[C@H]1C[C@H]3[C@H](N(C)C)C(O)=C(C(N)=O)C(=O)[C@@]3(O)C(O)=C1C2=O [Tigecycline]
fitness
Details	first compound 0.125 µg/mL	first compound 0.25 µg/mL	first compound 0.5 µg/mL	first compound 1 µg/mL	first compound 2 µg/mL	first compound 4 µg/mL
[1], partner 0.039 µg/mL	0.958	0.946	0.942	–	–	–
[1], partner 0.078 µg/mL	0.903	0.902	0.942	–	–	–
[1], partner 0.156 µg/mL	0.951	0.892	0.943	–	–	–
[2], partner 0.039 µg/mL	–	0.974	0.992	≥ 1	–	–
[2], partner 0.078 µg/mL	–	0.998	≥ 1	≥ 1	–	–
[2], partner 0.156 µg/mL	–	0.97	0.994	≥ 1	–	–
[3], partner 0.65 µg/mL	–	–	–	0.514	0.0102	0.0229
[3], partner 1.3 µg/mL	–	–	–	0.616	0.0542	0.0691
[3], partner 2.6 µg/mL	–	–	–	0.616	0.0292	0.0457

fitness, one replicate
Details	first compound 0.125 µg/mL	first compound 0.25 µg/mL	first compound 0.5 µg/mL	first compound 1 µg/mL
[1], partner 0.125 µg/mL	–	0.94	≥ 1	0.995
[1], partner 0.25 µg/mL	–	0.952	0.976	0.975
[1], partner 0.5 µg/mL	–	0.958	≥ 1	0.916
[3], partner 0.65 µg/mL	0.933	0.959	≥ 1	–
[3], partner 1.3 µg/mL	0.964	0.974	≥ 1	–
[3], partner 2.6 µg/mL	0.888	0.915	0.978	–

Details	Bliss interaction score
[4]	-0.0606
[5]	0.0805
[6]	0.0193
[7]	-0.0787
